From patent publication US8586611B2 (priority 2005, dated 2013)

How the values were obtained:
Format in all cases: in vivo
[1] = test system: Erysiphe graminis f. sp. tritici; test: Test E: wheat powdery mildew, spray the day before inoculation (disease rating, 100 = 100% disease control); conditions: spray the day before inoculation, compounds without asterisk (not 40 or 10 ppm)
In short: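 Wheat seedlings sprayed to run-off with compound suspended in acetone/water 50/50 with 250 ppm Trem 014 (200 ppm equivalent to 500 g/ha); inoculated next day with Erysiphe graminis f. sp. tritici spore dust. Kept 7 days at 20° C, then rated 0–100% disease control versus controls.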

Plasmopara viticola = test: Test B: grape downy mildew, spray 24 h after inoculation (disease rating, 100 = 100% disease control); conditions: spray 24 h after inoculation, compounds without asterisk (not 40 or 10 ppm)
In short: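 Grape seedlings were inoculated with Plasmopara viticola and held 24 h saturated at 20 °C, then sprayed to run-off with compound suspension (acetone/water with 250 ppm Trem 014; 200 ppm ≈ 500 g/ha). After 5 days at 20 °C and 24 h saturation, disease was rated from 0 to 100% control versus untreated.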

Phytophthora infestans [2] = test: whole plant or invertebrate; conditions: tomato late blight; spray 17 h after inoculation; compounds without asterisk (not 40 or 10 ppm)
Phytophthora infestans [3] = test: whole plant or invertebrate; conditions: tomato late blight; spray the day before inoculation; compounds without asterisk (not 40 or 10 ppm)

Structure (SMILES)	Test E disease rating (100 = 100% disease control, 0 = no disease control) [1] [%]	Test B disease rating (100 = 100% disease control, 0 = no disease control) (Plasmopara viticola) [%]	Test D disease rating (100 = 100% disease control, 0 = no disease control) (Phytophthora infestans [2]) [%]	Test C disease rating (100 = 100% disease control, 0 = no disease control) (Phytophthora infestans [3]) [%]
Cc1ccc(C)c(CC(=O)N2CCC(c3nc(C(=O)N(C)C4CCc5ccccc5C4)cs3)CC2)c1 (stereo not drawn) [compound 98]	0	0	0	84
Cc1ccc(C)c(CC(=O)N2CCC(c3nc(C(=O)N(C)C4CCCc5ccccc54)cs3)CC2)c1 (stereo not drawn) [compound 99]	0	97	99	100
Cc1ccc(C)c(CC(=O)N2CCC(c3nc(C(=O)N(C)C4CCc5ccccc54)cs3)CC2)c1 (stereo not drawn) [compound 100]	0	94	99	100
Cc1cc(C)n(CC(=O)N2CCC(c3nc(C(=O)N(C)[C@H](C)c4ccccc4)cs3)CC2)c1 [compound 101]	0	0	8	70
Cc1ccc(C)c(CC(=O)N2CCC(c3nc(C(=O)N(C)[C@H](C)c4ncc(Cl)cc4Cl)cs3)CC2)c1 [compound 111]	98	96	37	99
Cc1ccc(C)c(CC(=O)N2CCC(c3nc(C(=O)N(C)C(C)c4cc(C)sc4C)cs3)CC2)c1 (stereo not drawn) [compound 112]	95	93	99	100
Cc1ccc(C)c(CC(=O)N2CCC(c3nc(C(=O)N(C)C(C)c4cc(C)oc4C)cs3)CC2)c1 (stereo not drawn) [compound 113]	0	0	31	97
CC[C@H](c1ccccc1)N(C)C(=O)c1csc(C2CCN(C(=O)Cc3cc(C(F)(F)F)ccc3Cl)CC2)n1 [compound 114]	0	99	99	100
CC[C@H](c1ccccc1)N(C)C(=O)c1csc(C2CCN(C(=O)Cc3ccccc3OC)CC2)n1 [compound 115]	0	100	99	100
CC[C@H](c1ccccc1)N(C)C(=O)c1csc(C2CCN(C(=O)Cc3cccc(C)c3)CC2)n1 [compound 116]	0	100	87	49
CC[C@H](c1ccccc1)N(C)C(=O)c1csc(C2CCN(C(=O)Cn3nc(C)cc3C)CC2)n1 [compound 118]	0	99	99	100
Cc1nc(C)n(CC(=O)N2CCC(c3nc(C(=O)N(C)[C@H](C)c4ccccc4)cs3)CC2)n1 [compound 120]	0	7	100	51
Cc1cn(CC(=O)N2CCC(c3nc(C(=O)N(C)[C@H](C)c4ccccc4)cs3)CC2)c(C)n1 [compound 121]	0	0	0	47
C[C@H](c1ccccc1)N(C)C(=O)c1csc(C2CCN(C(=O)Cn3cnc(C(F)(F)F)n3)CC2)n1 [compound 122]	17	28	96	53
CCCc1nc(C(F)(F)F)cn1CC(=O)N1CCC(c2nc(C(=O)N(C)[C@H](C)c3ccccc3)cs2)CC1 [compound 123]	7	13	47	100
Cc1cc(C(C)C)nn1CC(=O)N1CCC(c2nc(C(=O)N(C)[C@H](C)c3ccccc3)cs2)CC1 [compound 127]	0	0	0	92
CCc1nc(C)cn1CC(=O)N1CCC(c2nc(C(=O)N(C)[C@H](C)c3ccccc3)cs2)CC1 [compound 128]	0	0	0	0
Cc1ccc(C)c(CC(=O)N2CCC(c3nc(C(=O)N(C)C4CCCCc5ccccc54)cs3)CC2)c1 (stereo not drawn) [compound 129]	0	0	57	50
Cc1ccc(C)c(CC(=O)N2CCC(c3nc(C(=O)N(C)[C@@H]4CCc5ccccc54)cs3)CC2)c1 [compound 130]	0	99	100	54
Cc1ccc(C)c(CC(=O)N2CCC(c3nc(C(=O)N(C)[C@H]4CCc5ccccc54)cs3)CC2)c1 [compound 131]	0	77	62	55
Cc1ccc(C)c(CC(=O)N2CCC(c3nc(C(=O)N(C)[C@H]4CCCc5ccccc54)cs3)CC2)c1 [compound 133]	0	77	79	53
Cc1ccc(C)c(CC(=O)N2CCC(c3nc(C(=O)N(C)C4CCCc5sccc54)cs3)CC2)c1 (stereo not drawn) [compound 134]	0	97	100	51
Cc1ccc(C)c(CC(=O)N2CCC(c3nc(C(=O)N(C)C4CCCc5occc54)cs3)CC2)c1 (stereo not drawn) [compound 135]	0	16	47	51
Cc1ccc(C)c(CC(=O)N2CCC(c3nc(C(=O)N(C)C4CCSc5ccccc54)cs3)CC2)c1 (stereo not drawn) [compound 136]	0	77	80	100
